Test results taken from paper PMC10266261, “A High-Throughput Approach to Identify Specific Neurotoxicants / Developmental Toxicants in Human Neuronal Cell Function Assays” (ALTEX, 2018).
Like-named read-outs stand apart in the source and are kept apart here.

Experiments:
cardiomyocytes = conditions: specific = cardio-physiologic parameters affected after 30 min at three-fold lower concentration than viability and no effect on viability after 24 h; ref Sirenko et al., 2017; cited from earlier work
[1] = system: immature human dorsal root ganglia neurons; assay: cells; format: cell-based; conditions: for ratio EC50(V)/EC50(NA): ≥ 3 = specific hit; for classification in the PeriTox screen: three independent screen runs, up to 20 μM
Experimental: The PeriTox test (= UKN5) is based on cells differentiated from the H9 human embryonic stem cell (hESC) line (WA09 line), which was obtained from WiCell (Madison, WI, USA). The import of cells and the experiments were authorized under license no. 170–79-1–4-27 (Robert Koch Institute, Berlin, Germany).
After one hour, 25 μl PDM with 4x concentrated serial dilutions of the test compounds was added to the cells. At 23 h after treatment, the cells were stained with SM and incubated for one additional hour at 37°C.
(§1) Image acquisition was performed with an ArrayScan VTI HCS (high content imaging) microscope (Cellomics, Waltham, MA, USA).
After automated imaging, an algorithm was applied that identified the neuronal somata (based on identified nuclei) and subtracted the somatic area from the total neuronal area to obtain the neurite area (NA), i.e., the number of pixels per field covered by neurites. […] Viability (V) was expressed as percentage of live cells relative to control.
(§2) Neurite area (NA) and viability (V) were always expressed as percentage of the DMSO control. In a first step, matched technical replicates were averaged. […] Curve fitting was performed employing a 4-parameter log-logistic function with least squares fit. The upper asymptote of the fit was forced to 100%, the lower asymptote was variable. The variation of DMSO controls was calculated from pooled values of DMSO controls over several experiments.
For calculation of the benchmark concentration values (BMC), a benchmark response (BMR) of three standard deviations of DMSO solvent controls of all assay plates (= “3 x noise level”) was used. […] To identify specific effects on neurite outgrowth, the EC50 ratio of EC50(viability)/EC50(neurite area) was calculated.
This method uses human immature dorsal root ganglia neurons (iDRG) that are produced from pluripotent stem cells that are still in a phase of neurite growth. Like in the NeuriTox assay, exposure to toxicants in this test is for 24 h, and readouts for viability (V) and neurite area (NA) are also conducted in a similar way (Fig. 7A).

LUHMES cells = assay: cells; format: cell-based, human; conditions: for classification / outcome after hit confirmation or re-testing (EC50 prediction model): EC50 ratio V/NA ≥ 4 specific, < 4 cytotoxic; for LOAEL for neurite area (lowest tested concentration with significant reduction) / classification in the NeuriTox screen: screen; for classification in the NeuriTox screen: hit = NA decreased at concentrations not affecting viability
Experimental: For the NeuriTox test (= UKN4), LUHMES (Lund human mesencephalic) cells were characterized and cultured as described in detail earlier ([Krug et al., 2013]; [Lotharius et al., 2005]; [Scholz et al., 2011]). Briefly, cells were maintained in proliferation medium (PM: AdvDMEM/F12 supplemented with 2 mM glutamine, 1x N2 supplement and 40 ng/ml fibroblast growth factor-2) in PLO/fibronectin coated flasks (50 μg/ml poly-L-ornithine (PLO) and 1 μg/ml fibronectin). For differentiation, cells were seeded at a density of 46,000 cells/cm^2 in PM. After 24 h, they were switched to differentiation medium (DM) containing AdvDMEM/F12 supplemented with 2 mM glutamine, 1x N2 supplement, 2.25 μM tetracycline, 1 mM dibutyryl 3’,5’-cyclic adenosine monophosphate (cAMP), and 2 ng/ml recombinant human glial cell derived neurotrophic factor (GDNF).
For the NeuriTox test, LUHMES cells were differentiated for 48 h and seeded into 96 well plates at a density of 100,000 cells/cm^2 in a volume of 90 μl DM without cAMP and GDNF. Treatment was initiated applying 10 μl of a 10x concentrated treatment solution one hour after seeding. At 24 h after treatment, staining mix (SM) was applied (final concentrations: 1 μg/ml H-33342, 1 μM calcein-AM).
as §1
The procedure was applied as detailed earlier ([Hoelting et al., 2016]; [Stiegler et al., 2011]). After automated imaging, an algorithm was applied that identified the neuronal somata (based on identified nuclei) and subtracted the somatic area from the total neuronal area to obtain the neurite area (NA), i.e., the number of pixels per field covered by neurites. Viability analysis was performed on the same pictures using combined information from H-33342 and calcein channels. Cells with normal-sized nuclei that were calcein-positive were counted as live cells, whereas H-33342 single-positive cells were counted as dead cells. Viability (V) was expressed as percentage of live cells relative to control.
as §2
For calculation of the benchmark concentration values (BMC), a benchmark response (BMR) of three standard deviations of DMSO solvent controls of all assay plates (= “3 x noise level”) was used. […] To identify specific effects on neurite outgrowth, the EC50 ratio of EC50(viability)/EC50(neurite area) was calculated. The NeuriTox test system has a specificity threshold ratio of 4, the PeriTox test system has one of 3 ([Hoelting et al., 2016]; [Krug et al., 2013]).
If V was not affected at the highest tested concentration (HTC), then 4 x HTC was used as surrogate EC50(V) (marked with ♦; for EC25 calculation, the HTC was doubled in this case) ([Krug et al., 2013]).
For the actual screening procedure, a defined workflow was established that contained several pre-determined decision points. All compounds were tested at 1:1000 dilutions of their stock concentration, and at subsequent 3-fold dilution levels. For most compounds, the stock was 20 mM, so that the test concentrations were 20 μM, 6.7 μM, 2.2 μM, 0.7 μM, 0.25 μM, 82 nM, 27 nM, 9 nM, 3 nM, and 1 nM. For 2,2’,4,4’,5,5’-hexabromodiphenyl-ether, chrysene, dibenz(a,h)anthracene, bis(tributyltin) oxide, benzo[g,h,i]perylene, and 2,3,7,8-tetrachlorodibenzo-p-dioxin lower stock concentrations were used.

[2] = Homo sapiens, Neuron, hit confirmation, 24 h, read-out: EC50(NA), neurite area
[3] = Homo sapiens, Neuron, hit confirmation, V not affected at HTC: 4 x HTC used as surrogate, read-out: EC50(V), viability, surrogate marked ♦
[4] = Homo sapiens, hit confirmation / re-testing, adjusted concentration range, 24 h, read-out: EC50(NA), neurite area
[5] = Homo sapiens, 24 h, read-out: EC50(NA), neurite area
[6] = Homo sapiens, 24 h, read-out: EC50(V), viability
[7] = screen data, specificity threshold 4
[8] = screen data, 24 h exposure, up to 20 μM, read-out: EC50(NA), neurite area
[9] = screen data, 24 h exposure, up to 20 μM, read-out: EC50(V), viability
[10] = Homo sapiens, Neuron, 24 h, read-out: EC50(NA), neurite area
[11] = Homo sapiens, Neuron, read-out: EC50(V), viability, surrogate marked ♦

## Cl.NCCc1cc(O)c(O)cc1O [6-Hydroxydopamine hydrochloride]
cardiomyocytes
  classification in the cardiotoxicity test method: specific

## C=CC(N)=O [Acrylamide]
[1]
  classification / outcome after hit confirmation (EC50 ratio viability/neurite area ≥ 3): specific PeriTox hit
[1]; hit confirmation
  ratio EC50(V)/EC50(NA): 3.2
[1]; tested at high concentration, 24 h, read-out: EC50(NA), neurite area
  EC50: 2300 µM

## CC(C)(c1ccc(O)cc1)c1ccc(O)cc1 [BPA, bisphenol A]
LUHMES cells
  classification / outcome after hit confirmation or re-testing (EC50 prediction model): no effect up to 100 μM

## COc1ccc2cc3[n+](cc2c1OC)CCc1cc2c(cc1-3)OCO2 [Berberine chloride]
cardiomyocytes
  classification in the cardiotoxicity test method: generally cytotoxic
[1]; [2]
  EC50: 11.6 µM
[1]; [3]
  EC50: 165 µM
[1]
  classification in the PeriTox screen: active hit compounds
LUHMES cells; [4]
  EC50: 23.9 µM
LUHMES cells; Homo sapiens, hit confirmation, adjusted concentration range, 24 h, read-out: EC50(V), viability
  EC50: 126 µM
LUHMES cells; 24 h
  LOAEL for neurite area (lowest tested concentration with significant reduction): 20 µM
LUHMES cells; up to 20 μM, 24 h
  classification in the NeuriTox screen: active hit compounds

## O=C1C2CC=CCC2C(=O)N1SC(Cl)(Cl)Cl (centres unmarked) [Captan]
LUHMES cells
  classification / outcome after hit confirmation or re-testing (EC50 prediction model): cytotoxicant with relatively low potency

## CNC(=O)Oc1cccc2ccccc12 [Carbaryl]
cardiomyocytes
  classification in the cardiotoxicity test method: specific
[1]
  classification in the PeriTox screen: active hit compounds
LUHMES cells; [5]
  EC50: 31 µM
LUHMES cells; [6]
  EC50: 130 µM
LUHMES cells; 24 h
  LOAEL for neurite area (lowest tested concentration with significant reduction): 20 µM
LUHMES cells; up to 20 μM, 24 h
  classification in the NeuriTox screen: active hit compounds

## COc1cc2c(c(OC)c1OC)-c1ccc(OC)c(=O)cc1[C@@H](NC(C)=O)CC2 [Colchicine]
[1]
  classification in the PeriTox screen: active hit compounds
LUHMES cells; 24 h
  LOAEL for neurite area (lowest tested concentration with significant reduction): 0.027 µM
LUHMES cells; up to 20 μM, 24 h
  classification in the NeuriTox screen: active hit compounds

## CC/C(=C(/CC)c1ccc(O)cc1)c1ccc(O)cc1 [Diethylstilbestrol]
[1]
  classification in the PeriTox screen: active hit compounds
LUHMES cells; up to 20 μM, 24 h
  classification in the NeuriTox screen: active hit compounds

## Oc1c(Cl)cc(Cl)c(Cl)c1Cc1c(O)c(Cl)cc(Cl)c1Cl [Hexachlorophene]
LUHMES cells; up to 20 μM, 24 h
  classification in the NeuriTox screen: cytotoxic

## CCCCNC(=O)OCC#CI [Iodocarb]
[1]; [2]
  EC50: 7.8 µM
[1]; [3]
  EC50: 66 µM
[1]
  classification in the PeriTox screen: active hit compounds
LUHMES cells; Homo sapiens, screen data, 24 h exposure, up to 20 μM, read-out: EC50(NA), neurite area
  EC50: 0.9 µM
LUHMES cells; Homo sapiens, screen data, 24 h exposure, up to 20 μM, read-out: EC50(V), viability
  EC50: 1.2 µM
LUHMES cells; [7]
  ratio EC50(V)/EC50(NA): 1.3

## C[n+]1ccc(-c2ccccc2)cc1.[I-] [MPP^+, 1-methyl-4-phenylpyridinium iodide]
[1]
  classification / outcome after hit confirmation (EC50 ratio viability/neurite area ≥ 3): not active at all
LUHMES cells; [4]
  EC50: 80 µM
LUHMES cells; up to 20 μM, 24 h
  classification in the NeuriTox screen: active hit compounds

## [CH3][Hg][Cl] [Methylmercury (II) chloride]
[1]
  classification in the PeriTox screen: active hit compounds
LUHMES cells; [8]
  EC50: 0.09 µM
LUHMES cells; [9]
  EC50: 0.16 µM
LUHMES cells; [7]
  ratio EC50(V)/EC50(NA): 1.8

## Brc1ccc(Oc2cc(Br)c(Br)cc2Br)c(Br)c1 [PBDE, 2,2’,4,4’,5’-pentabromodiphenylether]
LUHMES cells
  classification / outcome after hit confirmation or re-testing (EC50 prediction model): unspecific cytotoxicants

## C=C(C)[C@H]1Cc2c(ccc3c2O[C@@H]2COc4cc(OC)c(OC)cc4[C@@H]2C3=O)O1 [Rotenone]
cardiomyocytes
  classification in the cardiotoxicity test method: generally cytotoxic
[1]; [10]
  EC50: 0.05 µM
[1]; [11]
  EC50: 16.5 µM
[1]; hit confirmation
  ratio EC50(V)/EC50(NA): 330
[1]
  classification in the PeriTox screen: active hit compounds
LUHMES cells; [5]
  EC50: 0.5 µM
LUHMES cells; Homo sapiens, read-out: EC50(V), viability, surrogate marked ♦
  EC50: 40 µM
LUHMES cells; up to 20 μM, 24 h
  classification in the NeuriTox screen: active hit compounds

## Brc1ccc(Oc2ccc(Br)cc2Br)c(Br)c1 [TBDE, 2,2’,4,4’-tetrabromodiphenylether]
LUHMES cells
  classification / outcome after hit confirmation or re-testing (EC50 prediction model): unspecific cytotoxicants

## CCN(CC)C(=S)SSC(=S)N(CC)CC [Tetraethylthiuram disulfide]
LUHMES cells; [8]
  EC50: 3.7 µM
LUHMES cells; [9]
  EC50: 2.9 µM
LUHMES cells; [7]
  ratio EC50(V)/EC50(NA): 0.8

## O=P(Oc1ccccc1)(Oc1ccccc1)Oc1ccccc1 [Triphenyl phosphate]
LUHMES cells
  classification / outcome after hit confirmation or re-testing (EC50 prediction model): clearly non-toxic at concentrations up to 20 μM
LUHMES cells; Homo sapiens, read-out: toxicity EC50
  EC50: > 200 µM

## CCCC(CCC)C(=O)O [VPA, valproic acid]
[1]
  classification / outcome after hit confirmation (EC50 ratio viability/neurite area ≥ 3): cytotoxic

## CC(C)[C@@H]1NC(=O)[C@H](C)OC(=O)[C@@H](C(C)C)NC(=O)[C@@H](C(C)C)OC(=O)[C@H](C(C)C)NC(=O)[C@H](C)OC(=O)[C@@H](C(C)C)NC(=O)[C@@H](C(C)C)OC(=O)[C@H](C(C)C)NC(=O)[C@H](C)OC(=O)[C@@H](C(C)C)NC(=O)[C@@H](C(C)C)OC1=O [Valinomycin]
cardiomyocytes
  classification in the cardiotoxicity test method: generally cytotoxic
[1]; [10]
  EC50: 0.003 µM
[1]; Homo sapiens, Neuron, read-out: EC50(NA), neurite area
  EC50: 0.02 µM
[1]; [11]
  EC50: 0.2 µM
[1]
  classification in the PeriTox screen: active hit compounds
LUHMES cells; [5]
  EC50: 0.01 µM
LUHMES cells; [6]
  EC50: 6.2 µM
LUHMES cells; Homo sapiens, read-out: EC50 for reduction of neurite area
  EC50: 0.01 µM
LUHMES cells; hit confirmation, ≥ 4 = specific (developmental) neurotoxicant
  ratio EC50(V)/EC50(NA): 620
LUHMES cells; screen data, threshold changed to 2
  classification by BMC ratio (BMCV/BMCNA): specific DNT-compounds
LUHMES cells; screen data, threshold set at 3.16
  classification by BMC ratio (BMCV/BMCNA): cytotoxic
LUHMES cells; up to 20 μM, 24 h
  classification in the NeuriTox screen: active hit compounds

## CCC[CH2][Sn]([CH2]CCC)([CH2]CCC)[O][Sn]([CH2]CCC)([CH2]CCC)[CH2]CCC [bis(tributyltin)oxide]
LUHMES cells; up to 20 μM, 24 h
  classification in the NeuriTox screen: cytotoxic

## O=C1N[C@@H]2C(=C[C@H](O)[C@@H](O)[C@H]2O)c2cc3c(c(O)c21)OCO3 [narciclasine]
LUHMES cells; 50 nM, 24 h, positive control
  neurite area vs solvent control: significantly reduced

## CC(C)(C)C(O)(CCc1ccc(Cl)cc1)Cn1cncn1 (centres unmarked) [tebuconazole]
LUHMES cells; [4]
  EC50: 142 µM
LUHMES cells; Homo sapiens, re-testing, extended concentration range, read-out: toxicity EC50
  EC50: 238 µM
